From publication PMC5218480 (PLoS ONE, 2017)

Test system: MV-4-11 cells
Assay: Gene expression microarray analysis (Affymetrix PrimeView) and GSEA
Assay type: cell-based, human
Set-up: RFU PODN (11730768_x_at) / Fold change /veh PODN (11730768_x_at) / RFU LINC00158 (11744669_a_at) / Fold change /veh LINC00158 (11744669_a_at) / RFU DUSP10 (11751237_a_at) / Fold change /veh DUSP10 (11751237_a_at) / RFU ID3 (11757404_x_at) / Fold change /veh ID3 (11757404_x_at) / RFU PLEKHG5 (11737974_s_at) / Fold change /veh PLEKHG5 (11737974_s_at) / RFU LRRC4B (11730491_at) / Fold change /veh LRRC4B (11730491_at) / RFU GIMAP4 (11747438_a_at) / Fold change /veh GIMAP4 (11747438_a_at) / RFU KRT8 (11758183_x_at) / Fold change /veh KRT8 (11758183_x_at) / RFU CNN1 (11734310_a_at) / Fold change /veh CNN1 (11734310_a_at) / RFU VPS37D (11726825_at) / Fold change /veh VPS37D (11726825_at) / RFU C10orf10 (11716522_x_at) / Fold change /veh C10orf10 (11716522_x_at) / RFU KIR2DL2 /// KIR2DL4 /// KIR2DL5A /// KIR2DL5B /// KIR2DS1 /// KIR2DS2 /// KIR2DS3 /// KIR2DS4 /// KIR3DL3 /// KIR3DL3 /// KIR3DS1 (11738374_at) / Fold change /veh KIR2DL2 /// KIR2DL4 /// KIR2DL5A /// KIR2DL5B /// KIR2DS1 /// KIR2DS2 /// KIR2DS3 /// KIR2DS4 /// KIR3DL3 /// KIR3DL3 /// KIR3DS1 (11738374_at) / RFU C1QL1 (11718748_at) / Fold change /veh C1QL1 (11718748_at) / RFU TMPRSS4 (11747572_a_at) / Fold change /veh TMPRSS4 (11747572_a_at) / RFU HAMP (11756126_x_at) / Fold change /veh HAMP (11756126_x_at) / RFU RNFT2 (11725882_a_at) / Fold change /veh RNFT2 (11725882_a_at) / RFU NR4A2 (11747474_a_at) / Fold change /veh NR4A2 (11747474_a_at) / RFU ABCC12 (11746883_a_at) / Fold change /veh ABCC12 (11746883_a_at) / RFU TMEM136 (11760407_x_at) / Fold change /veh TMEM136 (11760407_x_at) / RFU CLDN22 /// WWC2 (11732394_at) / Fold change /veh CLDN22 /// WWC2 (11732394_at) / RFU HLA-DPB1 (11760878_x_at) / Fold change /veh HLA-DPB1 (11760878_x_at) / RFU SPINT1 (11716480_a_at) / Fold change /veh SPINT1 (11716480_a_at) / RFU GAP43 (11754022_s_at) / Fold change /veh GAP43 (11754022_s_at) / RFU A4GNT (11735810_at) / Fold change /veh A4GNT (11735810_at) / RFU PRB3 (11715151_x_at) / Fold change /veh PRB3 (11715151_x_at) / RFU TUBB4B (11761932_at) / Fold change /veh TUBB4B (11761932_at) / RFU CAPN14 (11732068_a_at) / Fold change /veh CAPN14 (11732068_a_at) / RFU TMCC2 (11721928_a_at) / Fold change /veh TMCC2 (11721928_a_at) / RFU IRGQ (11745062_a_at) / Fold change /veh IRGQ (11745062_a_at) / RFU FAM174B (11720279_a_at) / Fold change /veh FAM174B (11720279_a_at) / RFU TMPRSS4 (11748680_a_at) / Fold change /veh TMPRSS4 (11748680_a_at) / RFU FAM212B (11763350_a_at) / Fold change /veh FAM212B (11763350_a_at) / RFU PLEKHG5 (11743358_a_at) / Fold change /veh PLEKHG5 (11743358_a_at) / RFU ZSCAN30 (11745921_a_at) / Fold change /veh ZSCAN30 (11745921_a_at) / RFU CMKLR1 (11741424_a_at) / Fold change /veh CMKLR1 (11741424_a_at) / RFU LOC101060620 /// MAPK8IP1 (11723275_at) / Fold change /veh LOC101060620 /// MAPK8IP1 (11723275_at) / RFU SPTSSB (11747773_x_at) / Fold change /veh SPTSSB (11747773_x_at) / RFU PRSS12 (11739890_at) / Fold change /veh PRSS12 (11739890_at) / RFU BIN1 (11741810_x_at) / Fold change /veh BIN1 (11741810_x_at) / RFU WNT11 (11732464_a_at) / Fold change /veh WNT11 (11732464_a_at) / RFU C10orf10 (11716521_a_at) / Fold change /veh C10orf10 (11716521_a_at) / RFU C5orf56 (11738089_at) / Fold change /veh C5orf56 (11738089_at) / RFU CYB561 (11721691_x_at) / Fold change /veh CYB561 (11721691_x_at) / RFU ANKRD19P (11752326_a_at) / Fold change /veh ANKRD19P (11752326_a_at) / RFU OR2T12 /// OR2T33 /// OR2T8 (11738714_s_at) / Fold change /veh OR2T12 /// OR2T33 /// OR2T8 (11738714_s_at) / RFU VCAN (11748164_a_at) / Fold change /veh VCAN (11748164_a_at) / RFU JSRP1 (11732532_at) / Fold change /veh JSRP1 (11732532_at) / RFU KRTAP10-11 (11738290_x_at) / Fold change /veh KRTAP10-11 (11738290_x_at) / RFU MYO3A (11730013_a_at) / Fold change /veh MYO3A (11730013_a_at) / RFU EBF3 (11725865_a_at) / Fold change /veh EBF3 (11725865_a_at) / RFU CAMK2N1 (11719241_x_at) / Fold change /veh CAMK2N1 (11719241_x_at) / RFU C5orf56 (11738088_a_at) / Fold change /veh C5orf56 (11738088_a_at) / RFU OLFML3 (11715873_a_at) / Fold change /veh OLFML3 (11715873_a_at) / RFU LOC100653217 /// NTM (11731650_a_at) / Fold change /veh LOC100653217 /// NTM (11731650_a_at) / RFU MAPK11 (11762145_a_at) / Fold change /veh MAPK11 (11762145_a_at) / RFU FIZ1 (11724087_x_at) / Fold change /veh FIZ1 (11724087_x_at) / RFU OASL (11726364_x_at) / Fold change /veh OASL (11726364_x_at) / RFU SOX15 (11748057_x_at) / Fold change /veh SOX15 (11748057_x_at) / RFU CD79A (11719716_a_at) / Fold change /veh CD79A (11719716_a_at) / RFU HIST1H1D (11736915_at) / Fold change /veh HIST1H1D (11736915_at) / RFU CASKIN2 (11723855_a_at) / Fold change /veh CASKIN2 (11723855_a_at) / RFU LOC730098 (11760151_x_at) / Fold change /veh LOC730098 (11760151_x_at) / RFU OR4N2 (11742367_at) / Fold change /veh OR4N2 (11742367_at) / RFU PRRT2 (11749266_a_at) / Fold change /veh PRRT2 (11749266_a_at) / RFU SNX32 (11753110_a_at) / Fold change /veh SNX32 (11753110_a_at) / RFU CDHR5 (11726645_a_at) / Fold change /veh CDHR5 (11726645_a_at) / RFU RCAN1 (11760418_a_at) / Fold change /veh RCAN1 (11760418_a_at) / RFU FAM167A (11723789_a_at) / Fold change /veh FAM167A (11723789_a_at) / RFU FAM26E (11764081_at) / Fold change /veh FAM26E (11764081_at) / RFU ISYNA1 (11749810_s_at) / Fold change /veh ISYNA1 (11749810_s_at) / RFU ACY1 (11761880_at) / Fold change /veh ACY1 (11761880_at) / RFU 11764098_at / Fold change /veh 11764098_at / RFU SAMD14 (11745864_x_at) / Fold change /veh SAMD14 (11745864_x_at) / RFU NPB (11741838_a_at) / Fold change /veh NPB (11741838_a_at) / RFU TMPRSS6 (11731388_a_at) / Fold change /veh TMPRSS6 (11731388_a_at) / RFU KRTAP10-2 (11738614_at) / Fold change /veh KRTAP10-2 (11738614_at) / RFU ARHGAP8 /// PRR5-ARHGAP8 (11727945_x_at) / Fold change /veh ARHGAP8 /// PRR5-ARHGAP8 (11727945_x_at) / RFU KRTAP5-7 /// NADSYN1 (11734609_at) / Fold change /veh KRTAP5-7 /// NADSYN1 (11734609_at) / RFU RASL12 (11751679_a_at) / Fold change /veh RASL12 (11751679_a_at) / RFU CDKN2B (11736163_a_at) / Fold change /veh CDKN2B (11736163_a_at) / RFU PRF1 (11729649_at) / Fold change /veh PRF1 (11729649_at) / RFU, ZNF638 /// ZNF638-IT1 / Fold change vs veh, ZNF638 /// ZNF638-IT1 / RFU, PANK3 / Fold change vs veh, PANK3 / RFU, SH3YL1 / Fold change vs veh, SH3YL1 / RFU, ZEB2 / Fold change vs veh, ZEB2 / RFU, NRIP1 / Fold change vs veh, NRIP1 / RFU, PTTG1IP / Fold change vs veh, PTTG1IP / RFU, CAPN2 / Fold change vs veh, CAPN2 / RFU, MED14 / Fold change vs veh, MED14 / RFU, SNORA58 / Fold change vs veh, SNORA58 / RFU, C1orf63 / Fold change vs veh, C1orf63 / RFU, LRRFIP1 / Fold change vs veh, LRRFIP1 / RFU, NDUFAF7 / Fold change vs veh, NDUFAF7 / RFU, SLC12A2 / Fold change vs veh, SLC12A2 / RFU, IBTK / Fold change vs veh, IBTK / RFU, ESF1 / Fold change vs veh, ESF1 / Fold change vs veh, TMEM50B / RFU, TAOK1 / Fold change vs veh, TAOK1 / RFU, ACBD3 / Fold change vs veh, ACBD3 / RFU, TMA16 / Fold change vs veh, TMA16 / RFU, RWDD3 / Fold change vs veh, RWDD3 / RFU, BCAT1 / Fold change vs veh, BCAT1 / RFU, EDEM3 / Fold change vs veh, EDEM3 / RFU, TMEM33 / Fold change vs veh, TMEM33 / RFU, WDR75 / Fold change vs veh, WDR75 / RFU, AHCTF1 / Fold change vs veh, AHCTF1 / RFU, TFRC / Fold change vs veh, TFRC / RFU, ZDHHC17 / Fold change vs veh, ZDHHC17 / RFU, NOM1 / Fold change vs veh, NOM1 / RFU, ARL8B / Fold change vs veh, ARL8B / RFU, ZBTB11 / Fold change vs veh, ZBTB11 / RFU, TAMM41 / Fold change vs veh, TAMM41 / RFU, KIAA1704 /// LOC100996395 / Fold change vs veh, KIAA1704 /// LOC100996395 / RFU, ING1 / Fold change vs veh, ING1 / RFU, TRMT61B / Fold change vs veh, TRMT61B / RFU, FUBP3 / Fold change vs veh, FUBP3 / RFU, TP53 / Fold change vs veh, TP53 / RFU, TNKS2 / Fold change vs veh, TNKS2 / RFU, ZFP14 / Fold change vs veh, ZFP14 / RFU, ACTR2 / Fold change vs veh, ACTR2 / RFU, PPP3R1 / Fold change vs veh, PPP3R1 / RFU, PIK3R1 / Fold change vs veh, PIK3R1 / RFU, HNRNPA1 / Fold change vs veh, HNRNPA1 / RFU, RNF170 / Fold change vs veh, RNF170 / RFU, ZNF28 / Fold change vs veh, ZNF28 / RFU, RNGTT / Fold change vs veh, RNGTT / RFU, OGT / Fold change vs veh, OGT / RFU, BRD1 / Fold change vs veh, BRD1 / RFU, MARS / Fold change vs veh, MARS / RFU, ZNF655 / Fold change vs veh, ZNF655 / RFU, FAHD1 / Fold change vs veh, FAHD1 / RFU, BDP1 / Fold change vs veh, BDP1 / RFU, LRRCC1 / Fold change vs veh, LRRCC1 / RFU, ARID1A / Fold change vs veh, ARID1A / RFU, ZNF146 / Fold change vs veh, ZNF146 / RFU, ZNF330 / Fold change vs veh, ZNF330 / RFU, GPN3 / Fold change vs veh, GPN3 / RFU, C9orf123 / Fold change vs veh, C9orf123 / RFU, N4BP2L2 / Fold change vs veh, N4BP2L2 / RFU, ARFIP1 / Fold change vs veh, ARFIP1 / RFU, FAM179B / Fold change vs veh, FAM179B / RFU, BCL10 / Fold change vs veh, BCL10 / RFU, UHRF1BP1L / Fold change vs veh, UHRF1BP1L / RFU, BET1 / Fold change vs veh, BET1 / RFU, CNOT2 / Fold change vs veh, CNOT2 / RFU, ZNF268 / Fold change vs veh, ZNF268 / Fold change vs veh, ZNF507 / RFU, DGCR2 / Fold change vs veh, DGCR2 / RFU, WDSUB1 / Fold change vs veh, WDSUB1 / Fold change vs veh, HSP90B1 /// MIR3652 / RFU, ADSS / Fold change vs veh, ADSS / RFU, GK / Fold change vs veh, GK / RFU, ZNF148 / Fold change vs veh, ZNF148 / RFU, TAF9 / Fold change vs veh, TAF9 / RFU, SLC1A5 / Fold change vs veh, SLC1A5 / RFU, SLMO2 / Fold change vs veh, SLMO2 / RFU, ABCC4 / Fold change vs veh, ABCC4 / RFU, LOC101060439 /// RAP1B / Fold change vs veh, LOC101060439 /// RAP1B / RFU, RFX7 / Fold change vs veh, RFX7 / RFU, GTPBP10 / Fold change vs veh, GTPBP10 / RFU, CNEP1R1 / Fold change vs veh, CNEP1R1 / RFU, BIVM-ERCC5 /// ERCC5 / Fold change vs veh, BIVM-ERCC5 /// ERCC5 / RFU, ILF3 / Fold change vs veh, ILF3 / RFU 11762660_at / Fold change /veh 11762660_at / RFU VCAN (11757783_s_at) / Fold change /veh VCAN (11757783_s_at) / RFU DDX43 (11728927_at) / Fold change /veh DDX43 (11728927_at) / RFU KRT8 (11758188_x_at) / Fold change /veh KRT8 (11758188_x_at) / RFU NKD1 (11759106_at) / Fold change /veh NKD1 (11759106_at) / RFU SRD5A1 (11742802_a_at) / Fold change /veh SRD5A1 (11742802_a_at) / RFU TPSAB1 /// TPSB2 (11721975_s_at) / Fold change /veh TPSAB1 /// TPSB2 (11721975_s_at) / RFU GSTM3 (11746129_a_at) / Fold change /veh GSTM3 (11746129_a_at) / RFU IL23R (11737362_x_at) / Fold change /veh IL23R (11737362_x_at) / RFU TMEM51 (11727254_a_at) / Fold change /veh TMEM51 (11727254_a_at) / RFU PIWIL2 (11732686_x_at) / Fold change /veh PIWIL2 (11732686_x_at) / RFU ORM1 (11744905_x_at) / Fold change /veh ORM1 (11744905_x_at) / RFU CCDC152 (11743942_at) / Fold change /veh CCDC152 (11743942_at) / RFU ECM1 (11717891_a_at) / Fold change /veh ECM1 (11717891_a_at) / RFU IL23R (11748794_a_at) / Fold change /veh IL23R (11748794_a_at) / RFU TNFAIP8L3 (11732012_x_at) / Fold change /veh TNFAIP8L3 (11732012_x_at) / RFU MBOAT4 (11741988_at) / Fold change /veh MBOAT4 (11741988_at) / RFU 11764193_at / Fold change /veh 11764193_at / RFU TMEM53 (11763286_at) / Fold change /veh TMEM53 (11763286_at) / RFU MAGEB2 (11727129_at) / Fold change /veh MAGEB2 (11727129_at) / RFU TMEM200A (11744735_a_at) / Fold change /veh TMEM200A (11744735_a_at) / RFU CCDC152 (11751479_a_at) / Fold change /veh CCDC152 (11751479_a_at) / RFU FAM211A (11726209_a_at) / Fold change /veh FAM211A (11726209_a_at) / RFU RGS16 (11746705_a_at) / Fold change /veh RGS16 (11746705_a_at) / RFU VCAN (11755009_s_at) / Fold change /veh VCAN (11755009_s_at) / RFU RHOB (11743442_s_at) / Fold change /veh RHOB (11743442_s_at) / RFU RGS16 (11720943_a_at) / Fold change /veh RGS16 (11720943_a_at) / RFU RGS16 (11720944_at) / Fold change /veh RGS16 (11720944_at) / RFU, VPS4B / Fold change vs veh, VPS4B / RFU, CREB1 / Fold change vs veh, CREB1 / RFU, DNAJC13 / Fold change vs veh, DNAJC13 / RFU, GNAQ / Fold change vs veh, GNAQ / RFU, CDK5R1 / Fold change vs veh, CDK5R1 / RFU, ZRANB3 / Fold change vs veh, ZRANB3 / RFU, CUL4A / Fold change vs veh, CUL4A / RFU, CCNY / Fold change vs veh, CCNY / RFU, UFL1 / Fold change vs veh, UFL1 / RFU, COG3 / Fold change vs veh, COG3 / RFU, DIAPH2 / Fold change vs veh, DIAPH2 / RFU, SKA2 / Fold change vs veh, SKA2 / RFU, AFF3 / Fold change vs veh, AFF3 / RFU, LMF1 / Fold change vs veh, LMF1 / RFU, IPO11 / Fold change vs veh, IPO11 / RFU, DFFB / Fold change vs veh, DFFB / RFU, FOXP1 / Fold change vs veh, FOXP1 / RFU, CARD8 / Fold change vs veh, CARD8 / RFU, STRN3 / Fold change vs veh, STRN3 / RFU, ADK / Fold change vs veh, ADK / RFU, RASSF2 / Fold change vs veh, RASSF2 / RFU, WIPF1 / Fold change vs veh, WIPF1 / RFU, LARP1B / Fold change vs veh, LARP1B / RFU, RASA1 / Fold change vs veh, RASA1 / RFU, RB1 / Fold change vs veh, RB1 / RFU, PPFIA1 / Fold change vs veh, PPFIA1 / RFU, MAT2A / Fold change vs veh, MAT2A / RFU, CCT5 / Fold change vs veh, CCT5 / RFU, WDR92 / Fold change vs veh, WDR92 / RFU, CUX1 / Fold change vs veh, CUX1 / RFU, TTC7A / Fold change vs veh, TTC7A / RFU, TMEM135 / Fold change vs veh, TMEM135 / RFU, DEPTOR / Fold change vs veh, DEPTOR / RFU, CPM / Fold change vs veh, CPM / RFU, DNAJB6 / Fold change vs veh, DNAJB6 / RFU, CACNA2D3 / Fold change vs veh, CACNA2D3 / RFU, DTX4 / Fold change vs veh, DTX4 / RFU, TFCP2 / Fold change vs veh, TFCP2 / RFU, GMCL1 /// GMCL1P1 / Fold change vs veh, GMCL1 /// GMCL1P1 / RFU, AEBP2 / Fold change vs veh, AEBP2 / RFU, SNHG1 /// SNORD22 /// SNORD25 /// SNORD26 /// SNORD27 /// SNORD28 /// SNORD29 /// SNORD31 / Fold change vs veh, SNHG1 /// SNORD22 /// SNORD25 /// SNORD26 /// SNORD27 /// SNORD28 /// SNORD29 /// SNORD31 / Fold change (Aza/veh), C12orf56 (ProbeSet 11735607_a_at) / Fold change (ACY-1035/veh), C12orf56 (ProbeSet 11735607_a_at) / Fold change (Aza/veh), FGFR1OP (ProbeSet 11751329_s_at) / Fold change (ACY-1035/veh), FGFR1OP (ProbeSet 11751329_s_at) / Fold change (Aza/veh), VPS36 (ProbeSet 11739960_a_at) / Fold change (ACY-1035/veh), VPS36 (ProbeSet 11739960_a_at) / RFU SYPL1 (11715823_x_at) / Fold change /veh SYPL1 (11715823_x_at) / RFU IGFBP7 (11715501_s_at) / Fold change /veh IGFBP7 (11715501_s_at) / RFU REEP3 (11722064_at) / Fold change /veh REEP3 (11722064_at) / RFU IGLL1 (11728026_x_at) / Fold change /veh IGLL1 (11728026_x_at): dose or concentration left out as unconfirmed
Details: MV-4-11 cells, 48 hours

For `Nc1ccc(-c2cccs2)cc1NC(=O)c1ccc2c(c1)cc(C1CC1)n2CCN1CCOCC1` [ACY-1035], the “Fold change /veh CCDC152 (11751479_a_at)” value was 1.05.
